Experimental data from US20040229268A1, “Method and kit for identifying antibiotic-resistant microorganisms” (priority 2003, published 2004).
≈ marks a conversion by molar mass, not a printed value.

Tested on: Staphylococcus isolates
Experiment: Oxacillin Minimum Inhibitory Concentration (Ox MIC)
Type: cell-based, S. aureus and other Staphylococcus spp.

## Cc1onc(-c2ccccc2)c1C(=O)N[C@@H]1C(=O)N2[C@@H]1SC(C)(C)[C@@H]2C(=O)O [Oxacillin]
Staphylococcus, Pos Control GP1217
  MIC: > 16 µg/mL
Staphylococcus, Table 14, S. hemoliticus, 1 isolate
  MIC: ≤ 0.25 µg/mL
Staphylococcus, Table 14, S. hyicus-hyicus, 1 isolate
  MIC: ≤ 0.25 µg/mL
Staphylococcus, Table 14, S. intermedius, 1 isolate
  MIC: ≤ 0.25 µg/mL
Staphylococcus, clinical isolate GP21, determined at the collection site
  MIC: < 0.25 µg/mL
Staphylococcus, clinical isolate GP22, determined at the collection site
  MIC: 0.5 µg/mL (≈ 1.25 µM)
Staphylococcus, clinical isolate GP23, determined at the collection site
  MIC: < 0.25 µg/mL
Staphylococcus, clinical isolate GP24, determined at the collection site
  MIC: > 16 µg/mL
Staphylococcus, clinical isolate GP25, determined at the collection site
  MIC: > 16 µg/mL
Staphylococcus, clinical isolate GP26, determined at the collection site
  MIC: < 0.25 µg/mL
Staphylococcus, clinical isolate GP27, determined at the collection site
  MIC: < 0.25 µg/mL
Staphylococcus, clinical isolate GP28, determined at the collection site
  MIC: 1 µg/mL (≈ 2.49 µM)
Staphylococcus, clinical isolate GP29, determined at the collection site
  MIC: > 16 µg/mL
Staphylococcus, clinical isolate GP30, determined at the collection site
  MIC: < 0.25 µg/mL
Staphylococcus, clinical isolate GP31, determined at the collection site
  MIC: > 16 µg/mL
Staphylococcus, clinical isolate GP32, determined at the collection site
  MIC: < 0.25 µg/mL
Staphylococcus, clinical isolate GP33, determined at the collection site
  MIC: > 16 µg/mL
Staphylococcus, clinical isolate GP34, determined at the collection site
  MIC: < 0.25 µg/mL
Staphylococcus, clinical isolate GP35, determined at the collection site
  MIC: > 16 µg/mL
Staphylococcus, clinical isolate GP36, determined at the collection site
  MIC: < 0.25 µg/mL
Staphylococcus, clinical isolate GP37, determined at the collection site
  MIC: > 16 µg/mL
Staphylococcus, clinical isolate GP39, determined at the collection site
  MIC: < 0.25 µg/mL
Staphylococcus, clinical isolate GP40, determined at the collection site
  MIC: < 0.25 µg/mL
Table 14, ATCC MRSA, first isolate
  MIC: 8 µg/mL (≈ 19.9 µM)
Table 14, ATCC MRSA, second isolate
  MIC: 16 µg/mL (≈ 39.9 µM)
Table 14, ATCC MSSA, 1 isolate
  MIC: 1 µg/mL (≈ 2.49 µM)
Table 14, ATCC MSSA, group of 4 isolates
  MIC: 0.5 µg/mL (≈ 1.25 µM)
Table 14, ATCC MSSA, group of 6 isolates
  MIC: ≤ 0.25 µg/mL
Table 14, Clinical MRSA, group of 8 isolates
  MIC: 16 µg/mL (≈ 39.9 µM)
Table 14, Clinical MRSA, group of 13 isolates
  MIC: 8 µg/mL (≈ 19.9 µM)
Table 14, Clinical MRSA, group of 14 isolates, provided by an outside laboratory
  MIC: 4 µg/mL (≈ 9.96 µM)
Table 14, Clinical MRSA, group of 107 isolates
  MIC: > 16 µg/mL
Table 14, Clinical MSSA, group of 8 isolates
  MIC: 2 µg/mL (≈ 4.98 µM)
Table 14, Clinical MSSA, group of 13 isolates
  MIC: 1 µg/mL (≈ 2.49 µM)
Table 14, Clinical MSSA, group of 28 isolates
  MIC: 0.5 µg/mL (≈ 1.25 µM)
Table 14, Clinical MSSA, group of 99 isolates
  MIC: ≤ 0.25 µg/mL
Table 14, S. epidermidis, 1 isolate (mecA(+)), first
  MIC: 4 µg/mL (≈ 9.96 µM)
Table 14, S. epidermidis, 1 isolate (mecA(+)), second
  MIC: > 16 µg/mL
Table 14, S. epidermidis, group of 2 isolates (mecA(−))
  MIC: ≤ 0.25 µg/mL
Table 14, S. hominis, 1 isolate
  MIC: ≤ 0.25 µg/mL
Table 14, S. saprophyticus, 1 isolate
  MIC: 0.5 µg/mL (≈ 1.25 µM)
Table 14, S. simulans, 1 isolate
  MIC: ≤ 0.25 µg/mL
Table 14, S. warneri, 1 isolate
  MIC: ≤ 0.25 µg/mL
Specimen 10 (mecA PCR Neg)
  Ox MIC: 8 µg/mL
Specimen 101 (mecA PCR Neg)
  Ox MIC: 4 µg/mL
Specimen 102 (mecA PCR Pos)
  Ox MIC: 4 µg/mL
Specimen 103 (mecA PCR Neg)
  Ox MIC: 4 µg/mL
Specimen 104 (mecA PCR Neg)
  Ox MIC: 2 µg/mL
Specimen 105 (mecA PCR Neg)
  Ox MIC: 2 µg/mL
Specimen 106 (mecA PCR Neg)
  Ox MIC: 2 µg/mL
Specimen 139 (mecA PCR Pos)
  Ox MIC: 4 µg/mL
Specimen 140 (mecA PCR Pos)
  Ox MIC: 16 µg/mL
Specimen 142 (mecA PCR Pos)
  Ox MIC: 4 µg/mL
Specimen 145 (mecA PCR Neg)
  Ox MIC: 4 µg/mL
Specimen 148 (mecA PCR Pos)
  Ox MIC: 4 µg/mL
Specimen 155 (mecA PCR Neg)
  Ox MIC: 4 µg/mL
Specimen 164 (mecA PCR Neg)
  Ox MIC: 2 µg/mL
Specimen 178 (mecA PCR Pos)
  Ox MIC: 2 µg/mL
Specimen 188 (mecA PCR Pos)
  Ox MIC: 2 µg/mL
Specimen 270 (mecA PCR Pos)
  Ox MIC: <0.25 µg/mL
Specimen #99 (mecA PCR Pos), reported by outside laboratory
  Ox MIC: 4 µg/mL
Specimen #100 (mecA PCR Neg), reported by outside laboratory
  Ox MIC: 4 µg/mL
